Columns and labels:
Test in all cases: relative viability (nuclei count vs DMSO), 5 days (fraction); higher = more cells survive
[1] = compound: O=C(Nc1cccc(C(F)(F)F)c1)Nc1cc(S(=O)(=O)NC2CC2)ccc1-c1ccsc1 [AGI-6780] + Nc1nc2[nH]cc(CCc3ccc(C(=O)N[C@@H](CCC(=O)O)C(=O)O)cc3)c2c(=O)[nH]1 [Pemetrexed] (partner 0.2 µM)
How it was run: (§1)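 Relative viability was taken as the ratio of nuclei in treated wells to nuclei in vehicle wells. Lung cancer cell lines in 1536-well plates received compounds by pin tool one day after seeding, either one drug alone or a fixed anchor-drug dose plus five library-drug doses (not always all listed) in √10 steps. Nuclei were counted on 4× images after 5 days of treatment, and values are medians of duplicate plates.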

[2] = compound: O=C(Nc1cccc(C(F)(F)F)c1)Nc1cc(S(=O)(=O)NC2CC2)ccc1-c1ccsc1 [AGI-6780] + Cc1nc(NC(=O)N2CCC[C@H]2C(N)=O)sc1-c1ccnc(C(C)(C)C(F)(F)F)c1 [Alpelisib] (partner 2 µM)
How it was run: as §1

[3] = compound: O=C(Nc1cccc(C(F)(F)F)c1)Nc1cc(S(=O)(=O)NC2CC2)ccc1-c1ccsc1 [AGI-6780] + CC(=O)c1c(C)c2cnc(Nc3ccc(N4CCNCC4)cn3)nc2n(C2CCCC2)c1=O [Palbociclib] (partner 0.5 µM)
How it was run: as §1

[4] = compound: O=C(Nc1cccc(C(F)(F)F)c1)Nc1cc(S(=O)(=O)NC2CC2)ccc1-c1ccsc1 [AGI-6780] + O=C(c1cc(Cc2n[nH]c(=O)c3ccccc23)ccc1F)N1CCN(C(=O)C2CC2)CC1 [Olaparib] (partner 8 µM)
How it was run: as §1

Cell Line | relative viability ([1]; first compound 0.08 µM) | relative viability ([1]; first compound 0.253 µM) | relative viability ([1]; first compound 0.8 µM) | relative viability ([1]; first compound 2.53 µM) | relative viability ([1]; first compound 8 µM) | relative viability ([2]; first compound 0.08 µM) | relative viability ([2]; first compound 0.253 µM) | relative viability ([2]; first compound 0.8 µM) | relative viability ([2]; first compound 2.53 µM) | relative viability ([2]; first compound 8 µM) | relative viability ([3]; first compound 0.08 µM) | relative viability ([3]; first compound 0.253 µM) | relative viability ([3]; first compound 0.8 µM) | relative viability ([3]; first compound 2.53 µM) | relative viability ([3]; first compound 8 µM) | relative viability ([4]; first compound 0.08 µM) | relative viability ([4]; first compound 0.253 µM) | relative viability ([4]; first compound 0.8 µM) | relative viability ([4]; first compound 2.53 µM) | relative viability ([4]; first compound 8 µM)
201T | 0.34 | 0.325 | 0.345 | 0.31 | 0.291 | 1.11 | 1.05 | 0.991 | 0.941 | 1.01 | 0.359 | 0.367 | 0.353 | 0.329 | 0.344 | 0.869 | 0.837 | 0.84 | 0.871 | 0.775
A549 | – | – | – | – | – | 0.797 | 0.662 | 0.76 | 0.593 | 0.747 | – | – | – | – | – | 0.32 | 0.298 | 0.337 | 0.302 | 0.377
A-427 | – | 0.932 | 1.01 | 0.929 | 0.971 | 1.06 | 1.02 | 1.09 | 0.902 | 1.06 | – | 0.504 | 0.548 | 0.462 | 0.491 | – | 0.712 | 0.738 | 0.649 | 0.732
ABC-1 | – | – | – | – | – | 1.14 | 0.918 | 1.08 | 0.829 | 1.24 | – | 0.666 | 0.846 | 0.608 | 0.905 | – | 0.965 | 0.888 | 0.779 | 0.792
BEN | 0.644 | 0.876 | 0.718 | – | 0.965 | 1.04 | 0.966 | 1.36 | – | 0.914 | 0.488 | 0.429 | 0.457 | – | 0.502 | 1.02 | 1.02 | 1.22 | – | 0.961
CAL-12T | 1.25 | 1.27 | 1.35 | 1.25 | 1.26 | 1.33 | 1.15 | 1.29 | 1.23 | 1.13 | 0.407 | 0.465 | 0.651 | 0.46 | 0.367 | 0.712 | 0.662 | 0.648 | 0.667 | 0.78
COR-L23 | 0.213 | 0.215 | 0.206 | 0.207 | 0.188 | 0.757 | 0.688 | 0.67 | 0.747 | 0.699 | 0.322 | 0.257 | 0.298 | 0.277 | 0.329 | 0.349 | 0.385 | 0.274 | 0.32 | 0.387
COR-L 105 | 1.26 | 0.965 | 1.17 | 0.923 | 1.08 | 1.19 | 1.02 | 0.986 | 0.863 | 1.04 | 0.395 | 0.301 | 0.417 | 0.371 | 0.37 | 0.632 | 0.466 | 0.707 | 0.66 | 0.541
ChaGo-K-1 | 0.26 | 0.267 | 0.261 | 0.255 | 0.25 | – | – | – | – | – | 0.951 | 0.968 | 0.921 | 0.921 | 0.898 | 0.437 | 0.457 | 0.377 | 0.411 | 0.422
IA-LM | – | – | – | – | – | 0.858 | 0.846 | 0.719 | 0.797 | 0.707 | – | – | – | – | – | 1.05 | 0.763 | 1 | 0.869 | 0.927
NCI-H522 | 1.23 | 1.04 | 0.913 | – | 1.05 | – | – | – | – | – | 0.97 | 0.972 | 0.968 | – | 0.86 | 0.527 | 0.636 | 0.746 | – | 0.551
NCI-H596 | 0.456 | 0.492 | 0.472 | 0.469 | 0.479 | 0.6 | 0.501 | 0.455 | 0.427 | 0.516 | – | – | – | – | – | 0.749 | 0.765 | 0.704 | 0.625 | 0.791
NCI-H727 | – | – | – | – | – | 0.679 | 0.588 | 0.742 | 0.491 | 0.548 | 0.669 | 0.671 | 0.605 | 0.56 | 0.645 | 0.65 | 0.757 | 0.705 | 0.597 | 0.66
NCI-H1299 | – | – | – | – | – | 1.02 | 1.04 | 0.971 | 1.09 | 1.02 | – | – | – | – | – | 0.982 | 0.964 | 0.948 | 0.908 | 0.961
NCI-H1563 | 0.712 | 0.822 | 0.748 | 0.655 | 0.518 | 0.923 | 0.934 | 0.846 | 0.992 | 0.874 | – | – | – | – | – | – | – | – | – | –
NCI-H1648 | 0.655 | 0.884 | 0.864 | 0.841 | 0.779 | – | – | – | – | – | 0.242 | 0.232 | 0.335 | 0.26 | 0.25 | 0.89 | 0.807 | 0.783 | 0.497 | 0.415
NCI-H1650 | 0.4 | 0.367 | 0.366 | 0.418 | 0.358 | – | – | – | – | – | 0.297 | 0.456 | 0.447 | 0.442 | 0.432 | 0.884 | 0.774 | 0.934 | 0.689 | 0.791
NCI-H1703 | – | – | – | – | – | 0.377 | 0.278 | 0.424 | 0.344 | 0.251 | – | – | – | – | – | 0.728 | 0.37 | 0.457 | 0.373 | 0.25
NCI-H2342 | 0.777 | 0.781 | 0.835 | 0.715 | 0.85 | – | – | – | – | – | 0.506 | 0.504 | 0.509 | 0.478 | 0.548 | 0.407 | 0.437 | 0.504 | 0.497 | 0.565
